Source: patent US20130289070A1, “Use of Levocabastine for Modulating Generation of Pro-Inflammatory Cytokines” (Bausch & Lomb Incorporated, priority 2007, published 2013)

Tested on: EoL-1 (human eosinophilic leukaemia cell line) cells
Experiment: TNF-α-induced cytokine release, EoL-1 cells differentiated with PMA (Luminex)
Assay type: cell-based
Set-up: key to IL-1α (PMA), p of decrement / IL-1β (PMA), p of decrement / IL-1ra (PMA), p of decrement / IL-5 (PMA), p of decrement / IL-7 (PMA), p of decrement / IL-8 (PMA), p of decrement / IP-10 (PMA), p of decrement / MCP-1 (PMA), p of decrement / MIP-1β (PMA), p of decrement / RANTES (PMA), p of decrement / VEGF (PMA), p of decrement / Fractalkine (PMA), p of decrement / MIP-1α (PMA), p of decrement: ns = non significant
Description: EoL-1 (human eosinophilic leukaemia cell line) cells (Saito et al., 1985; Mayumi, 1992) were maintained in RPMI-1640 medium with L-glutamine supplemented with 10% (v/v) FBS at 37° C. in a humidified atmosphere with 5% CO2. Where indicated, 24 h before the experiment 25 ng/mL PMA ((phorbol 12-myristate 13-acetate, purchased from Sigma Aldrich) was added to the medium to induce eosinophil granulation and differentiation (Ohtsu et al., 1993; Zimmermann et al., 2000).
Half-million cells were aliquoted per point in a 24 well plate; each experiment was performed in triplicate and carried out in parallel with eosinophils differentiated and non differentiated with PMA (25 ng/mL, 24 h). Cells were suspended in low serum medium (RPMI-1640, 0.1% (v/v) FBS). TNF-α was used to induce cytokine secretion as previously described by Steube et al. (2000), and the net release was obtained by comparison to the basal (non-TNF-α treated). In the first experiment we evaluated the concentration and time relation between TNF-α stimulation and cytokine release. Therefore, 5, 10, and 25 ng/mL of TNF-α was administered to the cells at 0, ½, 1, 2, 3, 6, 12 and 24 h (data not shown). An aliquot of 150 μL of supernate was collected for cytokines' analysis. […] Differentiated and non-differentiated EoL-1 cells were exposed from 0.1 to 2.3 mM levocabastine ([…]Levocabastine 0.05% solution eye drops containing cyclodextrins, without benzalkonium chloride), and aliquots of the supernates were collected after 12 and 24 h. The content of cytokines at time zero was estimated by treating the cells with 400 nM calcimycin (A-23187), which is a cytolytic agent that frees all the mediators from the cytoplasmic compartment. In addition, for each experiment we tested the effect of the vehicle, which was added to the wells in a concentration equal to the maximum amount used for drug dilution.
Samples (supernates 12 and 24 h) in triplicate were analyzed using Luminex 200™ (Luminex, Austin, Tex.) and Beadview software v1.0 (Upstate Cell Signaling Solutions, Temecula, Calif.).
All data are presented as mean±SEM for the indicated number of experiments. Statistical significance was determined by Newman-Keuls test after ANOVA using GraphPad Prism (version 3.0; GraphPad Software Inc., San Diego, Calif., USA). P-values<0.05 were considered to be significant.

[1] = 24 h, Levocabastine 2 mM vs TNF-α
[2] = 24 h, TNF-α 5 ng + Levocabastine 2 mM vs TNF-α
[3] = 24 h, TNF-α 10 ng + Levocabastine 2 mM vs TNF-α
[4] = 24 h, TNF-α 20 ng + Levocabastine 2 mM vs TNF-α
[5] = 24 h, TNF-α 5, 10, 20 ng + Levocabastine 2 mM vs TNF-α
[6] = 24 h, VCAM-1 + Levocabastine 2 mM vs VCAM-1

C[C@@H]1CN([C@H]2CC[C@](C#N)(c3ccc(F)cc3)CC2)CC[C@]1(C(=O)O)c1ccccc1 [Levocabastine, levocabastine]
P < 0.001: IL-12p40 (PMA), p of decrement [1] | VEGF (PMA), p of decrement [1] | IL-8 (PMA), p of decrement [2] | IL-8 (PMA), p of decrement [3] | IL-8 (PMA), p of decrement [4] | VEGF (PMA), p of decrement [6]
ns: IP-10 (PMA), p of decrement [1] | MCP-1 (PMA), p of decrement [1] | TGF-α (PMA), p of decrement [1] | Fractalkine (PMA), p of decrement [2] | G-CSF (PMA), p of decrement [2] | GM CSF (PMA), p of decrement [2] | IL-1β (PMA), p of decrement [2] | IL-5 (PMA), p of decrement [2] | IL-6 (PMA), p of decrement [2] | IL-7 (PMA), p of decrement [2] | IL-10 (PMA), p of decrement [2] | IL-12p40 (PMA), p of decrement [2] | IP-10 (PMA), p of decrement [2] | MCP-1 (PMA), p of decrement [2] | MIP-1α (PMA), p of decrement [2] | MIP-1β (PMA), p of decrement [2] | TGF-α (PMA), p of decrement [2] | Fractalkine (PMA), p of decrement [3] | G-CSF (PMA), p of decrement [3] | GM CSF (PMA), p of decrement [3] | IL-1β (PMA), p of decrement [3] | IL-5 (PMA), p of decrement [3] | IL-6 (PMA), p of decrement [3] | IL-7 (PMA), p of decrement [3] | IL-10 (PMA), p of decrement [3] | IL-12p40 (PMA), p of decrement [3] | IP-10 (PMA), p of decrement [3] | MCP-1 (PMA), p of decrement [3] | MIP-1α (PMA), p of decrement [3] | MIP-1β (PMA), p of decrement [3] | TGF-α (PMA), p of decrement [3] | VEGF (PMA), p of decrement [3] | Fractalkine (PMA), p of decrement [4] | G-CSF (PMA), p of decrement [4] | GM CSF (PMA), p of decrement [4] | IL-1β (PMA), p of decrement [4] | IL-5 (PMA), p of decrement [4] | IL-6 (PMA), p of decrement [4] | IL-7 (PMA), p of decrement [4] | IL-10 (PMA), p of decrement [4] | IL-12p40 (PMA), p of decrement [4] | IP-10 (PMA), p of decrement [4] | MCP-1 (PMA), p of decrement [4] | MIP-1α (PMA), p of decrement [4] | MIP-1β (PMA), p of decrement [4] | TGF-α (PMA), p of decrement [4] | Fractalkine (PMA), p of decrement (24 h, TNF-α vs Lev 0.1 mM) | IL-1ra (PMA), p of decrement (24 h, TNF-α vs Lev 0.1 mM) | IL-1α (PMA), p of decrement (24 h, TNF-α vs Lev 0.1 mM) | IL-5 (PMA), p of decrement (24 h, TNF-α vs Lev 0.1 mM) | IL-7 (PMA), p of decrement (24 h, TNF-α vs Lev 0.1 mM) | IL-8 (PMA), p of decrement (24 h, TNF-α vs Lev 0.1 mM) | IP-10 (PMA), p of decrement (24 h, TNF-α vs Lev 0.1 mM) | MCP-1 (PMA), p of decrement (24 h, TNF-α vs Lev 0.1 mM) | MIP-1α (PMA), p of decrement (24 h, TNF-α vs Lev 0.1 mM) | MIP-1β (PMA), p of decrement (24 h, TNF-α vs Lev 0.1 mM) | RANTES (PMA), p of decrement (24 h, TNF-α vs Lev 0.1 mM) | VEGF (PMA), p of decrement (24 h, TNF-α vs Lev 0.1 mM) | Fractalkine (PMA), p of decrement (24 h, TNF-α vs Lev 0.5 mM) | IL-1ra (PMA), p of decrement (24 h, TNF-α vs Lev 0.5 mM) | IL-1α (PMA), p of decrement (24 h, TNF-α vs Lev 0.5 mM) | IL-1β (PMA), p of decrement (24 h, TNF-α vs Lev 0.5 mM) | IL-5 (PMA), p of decrement (24 h, TNF-α vs Lev 0.5 mM) | IL-7 (PMA), p of decrement (24 h, TNF-α vs Lev 0.5 mM) | IL-8 (PMA), p of decrement (24 h, TNF-α vs Lev 0.5 mM) | IP-10 (PMA), p of decrement (24 h, TNF-α vs Lev 0.5 mM) | MCP-1 (PMA), p of decrement (24 h, TNF-α vs Lev 0.5 mM) | MIP-1α (PMA), p of decrement (24 h, TNF-α vs Lev 0.5 mM) | MIP-1β (PMA), p of decrement (24 h, TNF-α vs Lev 0.5 mM) | RANTES (PMA), p of decrement (24 h, TNF-α vs Lev 0.5 mM) | VEGF (PMA), p of decrement (24 h, TNF-α vs Lev 0.5 mM) | Fractalkine (PMA), p of decrement (24 h, TNF-α vs Lev 1.0 mM) | IL-1ra (PMA), p of decrement (24 h, TNF-α vs Lev 1.0 mM) | IL-1α (PMA), p of decrement (24 h, TNF-α vs Lev 1.0 mM) | IL-5 (PMA), p of decrement (24 h, TNF-α vs Lev 1.0 mM) | IL-7 (PMA), p of decrement (24 h, TNF-α vs Lev 1.0 mM) | IL-8 (PMA), p of decrement (24 h, TNF-α vs Lev 1.0 mM) | IP-10 (PMA), p of decrement (24 h, TNF-α vs Lev 1.0 mM) | MCP-1 (PMA), p of decrement (24 h, TNF-α vs Lev 1.0 mM) | MIP-1α (PMA), p of decrement (24 h, TNF-α vs Lev 1.0 mM) | MIP-1β (PMA), p of decrement (24 h, TNF-α vs Lev 1.0 mM) | RANTES (PMA), p of decrement (24 h, TNF-α vs Lev 1.0 mM) | IL-1ra (PMA), p of decrement (24 h, TNF-α vs Lev 2.3 mM) | IL-1α (PMA), p of decrement (24 h, TNF-α vs Lev 2.3 mM) | IL-1β (PMA), p of decrement (24 h, TNF-α vs Lev 2.3 mM) | IL-5 (PMA), p of decrement (24 h, TNF-α vs Lev 2.3 mM) | IL-7 (PMA), p of decrement (24 h, TNF-α vs Lev 2.3 mM) | IL-8 (PMA), p of decrement (24 h, TNF-α vs Lev 2.3 mM) | IP-10 (PMA), p of decrement (24 h, TNF-α vs Lev 2.3 mM) | MCP-1 (PMA), p of decrement (24 h, TNF-α vs Lev 2.3 mM) | MIP-1α (PMA), p of decrement (24 h, TNF-α vs Lev 2.3 mM) | MIP-1β (PMA), p of decrement (24 h, TNF-α vs Lev 2.3 mM) | RANTES (PMA), p of decrement (24 h, TNF-α vs Lev 2.3 mM) | Fractalkine (PMA), p of decrement [6] | GM-CSF (PMA), p of decrement [6] | IL-1β (PMA), p of decrement [6] | IL-5 (PMA), p of decrement [6] | IL-6 (PMA), p of decrement [6] | IL-10 (PMA), p of decrement [6] | IP-10 (PMA), p of decrement [6] | TGF-α (PMA), p of decrement [6]
able to reduce the release: release of VEGF (FIG. 4 Panel A) (EoL-1 cells differentiated with PMA 24 h before the experiment)
Increase: MIP-1α (PMA), p of decrement [1] | MIP-1β (PMA), p of decrement [1] | RANTES (PMA), p of decrement [1] | G-CSF (PMA), p of decrement [6] | IL-1ra (PMA), p of decrement [6] | IL-1α (PMA), p of decrement [6] | IL-7 (PMA), p of decrement [6] | IL-8 (PMA), p of decrement [6] | MCP-1 (PMA), p of decrement [6] | MIP-1α (PMA), p of decrement [6] | MIP-1β (PMA), p of decrement [6] | RANTES (PMA), p of decrement [6]
p < 0.05: IL-1β (PMA), p of decrement (24 h, TNF-α vs Lev 0.1 mM) | IL-1β (PMA), p of decrement (24 h, TNF-α vs Lev 1.0 mM) | VEGF (PMA), p of decrement (24 h, TNF-α vs Lev 1.0 mM)
able to reduce: IL-8 release (FIG. 9) (PMA differentiated EoL-1 cells after TNF-α challenge)
P < 0.01: IL-12p40 (PMA), p of decrement [6]
P < 0.05: VEGF (PMA), p of decrement [2] | VEGF (PMA), p of decrement [4]
increase of cytokine secretion: IL-1ra (PMA), p of decrement [5] | IL-1α (PMA), p of decrement [5] | RANTES (PMA), p of decrement [5]
p < 0.01: Fractalkine (PMA), p of decrement (24 h, TNF-α vs Lev 2.3 mM) | VEGF (PMA), p of decrement (24 h, TNF-α vs Lev 2.3 mM)
